Tests used:
hiPSCs = assay: Cell viability of hiPSCs treated with FK866; assay type: cell-based, human; details: up to 72 hours
Method: FIG. 10 presents data regarding FK866 toxicity on human pluripotent stem cells. […] Cell viability data is presented for hiPSCs treated with FK866 for up to 72 hours. […] (B) Cell viability of human pluripotent stem cells 72 hours after treatment initiation with FK866. Cells were treated with a range of concentrations (1 nM to 10 μM) either continuously or for 24 hour pulse.
FIG. 10 presents cell viability data for hiPSCs treated with FK866 (FIG. 9B) for up to 72 hours. […] Therefore, an effective strategy for selectively eliminating pluripotent stem cells is to deplete NAD^+ levels using a NAMPT inhibitor. […] Thus, these compounds will be useful for selectively eliminating tumorigenic cells in cells prepared for transplantation, independent of whether teratoma-causing cells in differentiated cultures are pluripotent or comprise one or more differentiated phenotypes.

[1] = test system: confluent hiPSC (DF6-9-9T); assay: Bright field imaging of cell morphology; assay type: cell-based, human; details: 72 hours, 2.5 μM STF-31, 30 μM WZB117, 20 μM PluriSIn
Method: (§1) In Vitro Toxicity Assays: Treatment with small molecules or glucose deprivation was initiated in hESC or hiPSC at 24 and 96 h post-plating and in vitro toxicity assays were performed at specified treatment endpoints 24-96 hours after treatment initiation. […] Neutral red assays for cell viability were performed as previously described. In vitro cell death was determined using SYTOX® Green nucleic acid stain (Life Technologies). Briefly, cells were incubated in 5 μM SYTOX® Green for 30 minutes at 37° C. in a humidified cell incubator with 5% CO2. Percent cell viability was determined by normalizing to replicate cells incubated with 120 μM digitonin (Sigma-Aldrich) and 5 μM SYTOX® Green. Imaging of cell viability was performed using Live/Dead® Viability/Cytotoxicity Kit, for mammalian cells (Life Technologies). Cells were stained for 20 minutes at room temperature with 4 μM Calcein AM to detect viable cells and 2 μM Ethidium Homodimer 1 to detect cells with compromised membranes. Representative images of alterations in cell morphology were acquired on confluent hPSC 24-72 hours after treatment initiation. Imaging was performed with a Nikon Ti-U inverted microscope.

hiPSC (DF6-9-9T) [2] = assay: Neutral red cell viability assay in hiPSC; assay type: cell-based, human; details: for elimination of hiPSC: 24 hour treatment, sub-confluent hiPSC; for toxicity: 72 hours
Method: Neutral red assays for cell viability were performed as previously described. In vitro cell death was determined using SYTOX® Green nucleic acid stain (Life Technologies). Briefly, cells were incubated in 5 μM SYTOX® Green for 30 minutes at 37° C. in a humidified cell incubator with 5% CO2. […] Imaging of cell viability was performed using Live/Dead® Viability/Cytotoxicity Kit, for mammalian cells (Life Technologies). Cells were stained for 20 minutes at room temperature with 4 μM Calcein AM to detect viable cells and 2 μM Ethidium Homodimer 1 to detect cells with compromised membranes. […] Imaging was performed with a Nikon Ti-U inverted microscope.

confluent hiPSC = assay: Colony formation assay (alkaline phosphatase staining); assay type: cell-based, human; details: 24 hour pulse, cells passaged, cultured 6 days
Method: The first iteration was adapted from previously described method, after 24 hours of treatment, hiPSC were detached with Accutase (StemCell Technologies), re-suspended in E8, passed though 12×75 mm tube with cell strainer cap (Falcon), and plated at 5e4 live cells per 2 cm^2. Media were changed every 48 hours and cells were cultured for six days, at which time staining for alkaline phosphatase was performed with leukocyte alkaline phosphatase kit (Sigma-Aldrich) as described and plates were visually inspected for phosphatase-positive colonies. This strategy represents the most common implementation of the colony formation assay. However, concerns regarding the cell death normally encountered during passaging prompted another approach for stricter assessment. In the second iteration, cells were treated for 24 hours, washed twice with 0.5 mL D-PBS, and media refreshed with E8. Thereafter, media were replaced daily for six days at which point staining for alkaline phosphatase activity was performed. […] Elimination of hiPSC from co-cultures with differentiated cells was performed with human fibroblasts and day 10 cardiomyocytes derived from hiPSC. hiPSC (DF6-9-9T) were plated at concentrations ranging from 100-10,000 live cells per well with human fibroblasts (1.75e5 cells) or day 10 differentiated cardiomyocytes (3.75e5 cells) in E8 and Y-27632 per 9.6 cm^2. […] Six days after plating, staining for alkaline phosphatase activity was performed. […] Imaging of wells was performed with a Sony Cyber-shot DSC-TX30 and individual colonies with a Nikon stereoscope.

hiPSC (DF6-9-9T) [3] = assay: SYTOX Green cell viability assay; assay type: cell-based, human; details: 72 hours treatment; 2.5 μM STF-31, 30 μM WZB117, 20 μM PluriSIn
Method: as §1

hiPSC [4] = assay: Live/dead staining (calcein AM / ethidium homodimer-1); assay type: cell-based, human; details: 72 hours, confluent; 2.5 μM STF-31, 30 μM WZB117, 20 μM PluriSIn
Method: as §1

hiPSC [5] = assay: Extracellular flux analysis (ECAR, OCR); assay type: cell-based, human
Method: Extracellular Flux Analysis: hiPSC were plated at 6e4 cells per well on specialized microplate (Seahorse Bioscience) as previously described with several exceptions. Extracellular flux analysis was performed on hiPSC 48 hours post-plating using Seahorse Bioscience XF24 Analyzer. […] The microplate was equilibrated in non-CO2 incubator for 1.5 h, and analyzed for 16 h in Seahorse Bioscience XF24 Analyzer. Assay medium consists of basal E8 reagents with the following exceptions: basal DMEM F-12 without phenol red (Gibco), no sodium bicarbonate, and 2.5 mM GlutaMAX™ (Gibco) and 15 mM Hepes (Gibco). Assay medium was adjusted to pH 7.4 at 37° C. prior to use. Extracellular acidification rate (ECAR) and basal oxygen consumption rate (OCR) were collected approximately every 60 minutes. Treatments were normalized to baseline media control value and are represented as average of thee biological replicates.

sub-confluent hiPSC [6] = assay: Cleaved caspase-3/7 fluorescence based assay; assay type: cell-based, human; details: after initiation of treatment; 2.5 μM STF-31, 30 μM WZB117
sub-confluent hiPSC [7] = assay: Immunoblot analysis of p-AMPK, AMPK, cleaved caspase-3 and -9; assay type: cell-based, human
Method: Immunoblot Analysis: Non-adherent cells were collected by centrifugation, adherent cells were washed once with d-PBS and lysed in Laemmli buffer, combined with non-adherent cell pellet, and heated at 95° C. for 5 minutes. Protein concentration was measured using the Qubit protein assay (Life Technologies). 25 μg of total protein was separated by SDS-PAGE, transferred to nitrocellulose membrane (GE Healthcare Life Sciences) and blocked according to the manufacturer's instructions. Membranes were incubated overnight at 4° C. with the following dilutions of primary antibodies: rabbit anti-cleaved caspase-3 (1:500), rabbit anti-caspase-9 (1:1000), rabbit anti-phospho-AMPK (1:1000), and rabbit anti-AMPK (1:1,000) from Cell Signaling Technology, and mouse anti-GAPDH (1:10,000) from Life Technologies. Membranes were then incubated with secondary antibodies for 45 minutes at the following concentrations: donkey anti-mouse-horseradish peroxidase (1:5,000) and donkey anti-rabbit-horseradish peroxidase (1:7,000) from Jackson Immunoresearch Laboratories, Inc., followed by detection using enhanced chemiluminescence.

sub-confluent hiPSC [8] = assay: Glucose uptake assay ([3H]2-deoxyglucose); assay type: cell-based, human; details: 1 hour of treatment; 2.5 μM STF-31, 30 μM WZB117
Method: For 1 hour treatment, cells were placed in Krebs-Ringer Hepes (KRH) containing treatment at 37° C. in a humidified cell incubator with 5% CO2. For 15, 18, and 24 hour treatments, cells were treated in E8 medium for 14, 17, and 23 hours, respectively, at which point media was changed to KRH buffer containing specific treatment for 1 hour. After specified treatment time, glucose uptake was performed with 0.5 μCi [^3H]2-deoxyglucose for 5 min at 37° C. as previously described. Uptake data were normalized to protein concentration measured with Lowry method.

[9] = test system: PAX6 positive neural progenitor cells; assay type: cell-based; details: 72 hours continuous STF-31 plus exogenous NA
Text: Data expressed as mean+S.D. (n=4); p<0.05, **p<0.01, ***p<0.001. […] Data expressed as mean+S.D. (n=4), *p<0.05, **p<0.01, ***p<0.001.

[10] = sub-confluent cells, 30 μM WZB117, 20 μM PluriSIn

Question: How did the “toxicity to human pluripotent stem cells relative to STF-31” value (hiPSCs) turn out when `O=C(/C=C/c1cccnc1)NCCCCC1CCN(C(=O)c2ccccc2)CC1` [FK866] was run?
Answer: The value was “toxic to human pluripotent stem cells at lower concentrations than STF-31”.

Question: How did the “morphology of hiPSC” value [1] turn out when `O=C(NNc1ccccc1)c1ccncc1` [PluriSIn] was run?
Answer: The value was “minimal alterations in the morphology”.

Question: And the “elimination of hiPSC” value (hiPSC (DF6-9-9T) [2]; 30 μM WZB117, 20 μM PluriSIn)?
Answer: Its value is “eliminated sub-confluent hiPSC”.

Question: What about the “cell death with increasing concentrations” value (hiPSC (DF6-9-9T) [2]; confluent cells, 20-40 μM) of the same molecule?
Answer: The value was “did not result in cell death”.

Question: What about the toxicity (hiPSC (DF6-9-9T) [2]; confluent cells, 20 μM PluriSIn) of the same molecule?
Answer: The toxicity was “did not induce significant toxicity”.

Question: And the toxicity (hiPSC (DF6-9-9T) [2]; [10])?
Answer: Its toxicity is “only effective on sub-confluent cells”.

Question: And the “formation of alkaline phosphatase-positive colonies” value (confluent hiPSC)?
Answer: The value was “did not prevent colony growth”.

Question: And the “cell viability (SYTOX Green)” value (hiPSC (DF6-9-9T) [3])?
Answer: Its value is “no significant reduction”.

Question: What about the live/dead staining (hiPSC [4]) of the same molecule?
Answer: Its live/dead staining is “not toxic”.

Question: What does the source list for `O=C(Oc1cccc(F)c1OC(=O)c1cccc(O)c1)c1cccc(O)c1` [WZB117]?
Answer: morphology of hiPSC [1]: morphological changes such as cell swelling; elimination of hiPSC (hiPSC (DF6-9-9T) [2]; 30 μM WZB117, 20 μM PluriSIn): eliminated sub-confluent hiPSC; toxicity (hiPSC (DF6-9-9T) [2]; confluent cells treated 24 hours post-plating, 30 μM WZB117): toxic; toxicity (hiPSC (DF6-9-9T) [2]; confluent cells treated 96 hours post-plating, 30 μM WZB117): significantly less toxic; toxicity (hiPSC (DF6-9-9T) [2]; [10]): toxic; time before reductions in OCR (hiPSC [5]; 2.5 μM STF-31, 30 μM WZB117): ≤ 8 h; effect on ECAR (hiPSC [5]; 30 μM WZB117): decrease in ECAR by the earliest timepoint measured; time of induction of caspase-3/7 activity (sub-confluent hiPSC [6]): 12 h; time at which cleaved caspase-3 and -9 are observed (sub-confluent hiPSC [7]; 2.5 μM STF-31, 30 μM WZB117): 12 h; time by which total levels of AMPK decreased (sub-confluent hiPSC [7]; 30 μM WZB117): ≤ 24 h; time at which p-AMPK is detected/increased (sub-confluent hiPSC [7]; post-treatment, 2.5 μM STF-31, 30 μM WZB117): 12 h; formation of alkaline phosphatase-positive colonies (confluent hiPSC): did not prevent colony growth; decrease in glucose uptake (sub-confluent hiPSC [8]): 20%; cell viability (SYTOX Green) (hiPSC (DF6-9-9T) [3]): no significant reduction; live/dead staining (hiPSC [4]): not toxic

Question: For `NC(=O)c1cccnc1` [nicotinamide], which “rescue of STF-31 mediated toxicity” value (hiPSC (DF6-9-9T) [2]; 10 and 100 μM nicotinamide, data not shown) is on record?
Answer: Its value is “failed to rescue”.

Question: `O=C(O)c1cccnc1` [nicotinic acid] was tested. Which “rescue of cell death caused by STF-31” value [9] did it give?
Answer: The value was “can be rescued”.

Reference: US11959096B2, “Methods for selective inhibition of pluripotent stem cells” (THE MEDICAL COLLEGE OF WISCONSIN, INC., priority 2014, dated 2024)
